Experimental data as given in patent US12628833B2, “Composition and method for improving plant growth” (ALGAIA, priority 2019, dated 2026).

Tests used:
Assay type in all cases: cell-based
[1] = test system: bacterial species with a recognized PGPR (Plant-Growth Promoting Rhizobacteria) effect; assay: Growth in liquid medium (96-well microplate), bacteria not specified
Protocol: (§1) The effect of the addition of algae extracts to a […] culture medium on the growth kinetics of seven bacterial species with a recognized PGPR (Plant-Growth Promoting Rhizobacteria) effect was determined: Bacillus megaterium, Bacillus subtilis, Rhizobium leguminosarum, Azotobacter vinelandii, Pseudomonas fluorescens, Pseudomonas fulva, Arthrobacter agilis.
(§2) Nutrient broth NB culture medium (Sigma-Aldrich) at 25 g/L was used for the multiplication of the following bacteria: Bacillus subtilis, Bacillus megaterium, Arthrobacter agilis, Pseudomonas fluorescens, Pseudomonas fulva. YMA medium (Sigma-Aldrich) without agar was used for Rhizobium leguminosarum bacteria.
(§3) Tests in sterile 96-well round-bottom microplates were performed. An absorbance of 0.06 to 0.08 (600 nm) for inoculation of the bacteria into the microplate was used in these tests.
(§4) Microplate plating included a blank, a positive control, a negative control and the samples.
(§5) The positive control was composed of bacteria and optimum culture medium (nutrient broth NB), in order to verify good multiplication of the bacteria in the microplates.
(§6) The negative control consisted of sterilized distilled water devoid of carbonaceous elements with 20 μl of bacteria inoculated with their NB culture medium, in order to determine how bacterial growth behaved in a medium depleted of any carbonaceous elements.
(§7) The blank was distilled water without bacteria in order to determine possible variations in absorbance and potential bacterial contamination.
(§8) The different algal extract tests consisted of sterile distilled water with the tested solutions at different concentrations (66 μl) to which 20 μl of bacteria were added.
(§9) The different seaweed extracts tested are: commercial mannitol, commercial laminarans, composition according to the invention (laminarans extract).
FIGS. 1 to 3 show a growth of bacterial strains in liquid medium using only the generated extract as carbon source for different bacteria.

[2] = test system: Bacillus megaterium; assay: Growth in liquid medium (96-well microplate, absorbance 600 nm), tested solution as only carbon source
Protocol: as §1, §2, §3, §4, §5, §6, §7, §8, §9

[3] = test system: Pseudomonas fluorescens; assay: as above
Protocol: as §1, §2, §3, §4, §5, §6, §7, §8, §9

[4] = test system: Pseudomonas fulva; assay: as above
Protocol: as §1, §2, §3, §4, §5, §6, §7, §8, §9

| Compound | concentration of maximum effect on bacterial growth ([1]; sole source of carbon) [%] | effect on bacterial growth ([1]; sole source of carbon, higher concentrations (2%)) | effect on bacterial growth ([1]; sole source of carbon, lower concentrations (0.1%)) | interaction between bacteria and compound (growth curve versus negative and positive control) ([2]; concentration 0.3%) | interaction between bacteria and compound (growth curve versus negative and positive control) ([2]; concentration 0.5%) | interaction between bacteria and compound (growth curve versus negative and positive control) ([2]; concentration 1%) | interaction between bacteria and compound (growth curve versus negative and positive control) ([3]; concentration 0.3%) | interaction between bacteria and compound (growth curve versus negative and positive control) ([3]; concentration 0.5%) | interaction between bacteria and compound (growth curve versus negative and positive control) ([3]; concentration 1%) | interaction between bacteria and compound (growth curve versus negative and positive control) ([4]; concentration 0.3%) | interaction between bacteria and compound (growth curve versus negative and positive control) ([4]; concentration 0.5%) | interaction between bacteria and compound (growth curve versus negative and positive control) ([4]; concentration 1%) | effect on bacterial growth ([1]; concentration not given) | effect on bacterial growth ([1]; concentrations in the range of <0.01%) | effect on bacterial growth ([1]; especially when the concentration was above 0.1%) | concentration from which it can be used as a carbon source (increase in bacterial growth) ([1]; used alone) | dependence of the effect on bacterial growth on concentration ([1]; used alone as carbon source) |
| --- | --- | --- | --- | --- | --- | --- | --- | --- | --- | --- | --- | --- | --- | --- | --- | --- | --- |
| OC[C@@H](O)[C@@H](O)[C@H](O)[C@H](O)CO [purified mannitol, mannitol] | 1 | very little or no effect | very little or no effect | absence of interaction between bacteria and compounds | absence of interaction between bacteria and compounds | positive interaction between bacteria and compounds | absence of interaction between bacteria and compounds | absence of interaction between bacteria and compounds | positive interaction between bacteria and compounds | absence of interaction between bacteria and compounds | absence of interaction between bacteria and compounds | positive interaction between bacteria and compounds |  |  |  |  |  |
| Alginates |  |  |  |  |  |  |  |  |  |  |  |  | little effect |  |  |  |  |
| Fucoidans |  |  |  |  |  |  |  |  |  |  |  |  |  | a small improvement in growth | did not seem to show any real positive effect |  |  |
| laminaran [standard laminaran] |  |  |  | absence of interaction between bacteria and compounds | absence of interaction between bacteria and compounds | positive interaction between bacteria and compounds | absence of interaction between bacteria and compounds | absence of interaction between bacteria and compounds | positive interaction between bacteria and compounds | absence of interaction between bacteria and compounds | absence of interaction between bacteria and compounds | positive interaction between bacteria and compounds |  |  |  | about 1% | the higher the concentration, the greater the effect |
